We go through one compound from patent US8809344B2, “Compounds, compositions, and methods for control of hepatitis C viral infections” (priority 2008, dated 2014).

Test [1] relates to HCV genotype 1b subgenomic replicon (Con1 strain). Kind of test: microbe, parasite or virus in culture. Format: cell-based. To be noted: Hepatitis C virus; 24 hours post-treatment; Renilla luciferase; Huh7.5 cells.
From the text: The replicon used in these studies was a transient genotype 1b subgenomic replicon generated from the Con1 strain. In this replicon, the HCV internal ribosome entry site (IRES) within the 5′ non-translated region (NTR) drives expression of the first 32 amino acids of the core protein fused to humanized Renilla luciferase (hRluc). The encephalomycarditis IRES lies 3′ to the hRluc open reading frame (ORF) and drives expression of non-structural (NS) proteins NS3 through NS5B. Huh7.5 cells (U.S. patent application Ser. No. 10/534,571) harboring this replicon were seeded into 96-well plates at 20,000 cells per well in medium containing 10% FBS, 1× penicillin/streptomycin, 1× non-essential amino acids, and 100 ng/ml Fungizone. After a four hour attachment period, compound was added to wells using a five point 3-fold serial dilution series with four replicate treatments per dose. Final DMSO percentage was 1% in a total volume of 200 ul. Compound-mediated HCV inhibition and toxicity were assayed 24 hours post-treatment using Renilla luciferase readout and an ATP viability assay (CellTiter-Glo, Promega, Madison, Wis., USA), respectively.
The test system of test [2] is all other chimeric replicons and the genotype 2a parental replicon. In words: Other chimeric replicons and genotype 2a parental replicon in Huh7.5 cells. Format: cell-based. The conditions noted are these: Hepatitis C virus. The text has this:
(§1) That NS4B is the target of 80978 was confirmed by a complementary approach. The differential response to 80978 by HCV genotype 1b and 2a replicons allowed the use of chimeric replicons to narrow down the region of the HCV genotype 1b NS4B coding region that confers sensitivity to 80978. The nucleotide sequence of the wild type HCV genotype 2a NS4B is provided as SEQ ID NO: 7 and the wild type HCV genotype 2a NS4B protein sequence is provided as SEQ ID NO:8. Using a plasmid containing an 80978-resistant stable HCV genotype 2a subgenomic reporter replicon cDNA, six replacement, or chimeric constructs were made, where the regions encoding the following amino acids of NS4B were replaced with the regions encoding the corresponding amino acids of NS4B from HCV genotype 1b: (i) 7-254, (ii) 7-52, (iii) 53-254, (iv) 219-254, (v) 7-52 and 219-254, and (vi) 53 to 218. The full-length NS4B protein is 261 amino acids in length and is provided as SEQ ID NO:2. Thus, if any of these segments of NS4B from genotype 1b are sufficient to confer 80978-sensitivity to a genotype 2a HCV replicon, it will render the chimeric genotype 1b/genotype 2a replicon sensitive to the compound.
(§2) Response to 80978 was measured initially in unselected cells. […] All of the chimeric and wild type control constructs were responsive to Cyclosporin A (CsA).

Test [3] relates to genotype 2a replicon encoding genotype 1b NS4B amino acids 53-254. Kind of test: Chimeric genotype 1b/2a replicon (NS4B aa 53-254 from 1b) in Huh7.5 cells. Format: cell-based, hepatitis C virus.
From the text: as §1, §2

For test [4], the system named is genotype 1b (Con1 strain) replicon with NS4B F1809V mutation. In words: F1809V mutant reporter replicon IVT RNA in Huh7.5 cells. Format: cell-based. To be noted: Hepatitis C virus. The text has this:
To identify nucleotide changes that confer resistance to 80978, replicon RNA was reverse transcribed and amplified from total RNA extracted from 80978-resistant and control Clone A cells. […] One silent mutation at amino acid 1771 was also observed. Each mutation was introduced independently into a stable genotype 1b (Con1 strain) subgenomic reporter replicon plasmid via site-directed mutagenesis. […] The sequence of the wild type NS4B encoding sequence is provided as SEQ ID NO:1, the sequence of the mutated NS4B nucleotide sequence encoding the F1809V mutation is provided as SEQ ID NO:3, and the sequence of the mutated NS4B nucleotide sequence encoding the F1809L mutation is provided as SEQ ID NO:5. The sequence of the wild type NS4B protein is provided as SEQ ID NO:2, the sequence of the mutated NS4B protein with the F1809V mutation is provided as SEQ ID NO:4, and the sequence of the mutated NS4B nucleotide sequence encoding the F1809L mutation is provided as SEQ ID NO:6. […] A differential response was observed between cells electroporated with different replicon RNAs.
Background: A replicon is a self-replicating genome or part of one, used to study replication in cells.

In test [5] the test system is stable genotype 1b (Con1 strain) subgenomic replicon in control Clone A cells. Kind of test: Control Clone A cells, HCV RNA by quantitative RT-PCR. Format: cell-based. The conditions noted are these: Hepatitis C virus, 72 h. On the procedure:
In an effort to gain insight into the target of 80978, Clone A cells were selected for resistance to 80978. Clone A cells are a human hepatoma cell line that contains a stable genotype 1b (Con1 strain) subgenomic replicon. Cells were cultured for 12 days in medium containing 10 μM 80978 and 1 mg/ml Geneticin™ (Invitrogen). Medium was changed every 3-4 days to replenish compound, and cells were split as needed to maintain subconfluent cultures. After 12 days of growth in the presence of 10 μM 80978, the concentration of 80978 was increased to 20 μM and cultured for an additional 19 days. Control Clone A cells were grown in parallel in the presence of diluent only. After this culture period, cells were evaluated for response to 80978.
Control cells and cells that had been cultured in the presence of 80978 were treated in triplicate with 3-fold serial dilutions of compound for 72 hours. At the end of this incubation period, total RNA was extracted, and HCV RNA levels were measured by quantitative RT-PCR using primers that recognize the 3′NTR.

Test [6] concerns genotype 2a replicon encoding genotype 1b NS4B amino acids 53 to 218. In words: Chimeric genotype 1b/2a replicon (NS4B aa 53 to 218 from 1b) in Huh7.5 cells. Format: cell-based, hepatitis C virus.
From the text: as §1, §2

In general, EC50 refers to the concentration needed to bring the measured effect to its halfway point.

Regarding `O=C(NCc1cccs1)c1nn2c(c1Cl)N[C@H](c1ccco1)C[C@@H]2C(F)(F)F` (single isomer, unassigned) [Compound 80978], the EC50 in test [1] is 1.8 µM; in test [2], more than 20 µM; in test [3] (Hepatitis C virus, Huh7.5) it was less than 2.5 µM; in test [4], more than 22.5 µM; in test [5] it was 1.76 µM; in test [6] (Hepatitis C virus, Huh7.5) it was less than 2.5 µM. Also, the “response to 80978” value is “responsive” in test [3] (Geneticin-selected stable replicon-containing cells, amino acids 53-254) and “responsive” in test [6] (Geneticin-selected stable replicon-containing cells, amino acids 53-218).
